Source: ChEMBL document CHEMBL1201862, “PubChem BioAssay data set” (2004)
Active and inactive are the calls of the source.

Tests used:
cells = format: functional
[1] = biological target: T1, Heat shock factor protein 1 (Mus musculus, UniProt P38532); assay: HSF1 potentiators in luciferase reporter cells, confirmation, cell-based, NIH3T3, luminescence, dose retest (AID 435004); format: functional;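 further: stress induced by proteasome inhibitor MG132 added 30 min after compound; luciferase reporter driven by HSF1 response element in NIH3T3 cells; actives raise luminescence as potentiators of the MG132 stress response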
T1 sequence (P38532 whole entry): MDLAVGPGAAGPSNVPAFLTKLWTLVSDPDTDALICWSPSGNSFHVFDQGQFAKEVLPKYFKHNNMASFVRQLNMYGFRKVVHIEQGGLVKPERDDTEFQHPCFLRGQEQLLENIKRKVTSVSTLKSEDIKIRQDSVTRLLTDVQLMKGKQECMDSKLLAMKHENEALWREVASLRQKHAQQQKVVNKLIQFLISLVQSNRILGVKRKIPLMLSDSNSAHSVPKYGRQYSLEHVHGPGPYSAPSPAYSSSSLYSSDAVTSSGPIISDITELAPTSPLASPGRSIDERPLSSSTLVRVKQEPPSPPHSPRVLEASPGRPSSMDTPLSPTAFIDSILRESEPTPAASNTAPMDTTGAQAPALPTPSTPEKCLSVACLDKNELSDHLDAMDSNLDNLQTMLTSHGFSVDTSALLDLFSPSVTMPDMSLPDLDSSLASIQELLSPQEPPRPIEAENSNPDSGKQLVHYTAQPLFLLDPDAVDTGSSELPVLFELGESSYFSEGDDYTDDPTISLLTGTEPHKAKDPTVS

[2] = biological target: T2, RNA-binding protein pos-1 (Caenorhabditis elegans, UniProt G5EF15); assay: inhibitors of POS-1/mex-3 RNA binding, dose response, biochemical, fluorescence polarization (AID 1964);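 further: purified POS-1 fused to maltose binding protein made in E. coli; potency of compounds blocking POS-1 binding to fluorescent RNA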
T2 sequence (G5EF15 whole entry): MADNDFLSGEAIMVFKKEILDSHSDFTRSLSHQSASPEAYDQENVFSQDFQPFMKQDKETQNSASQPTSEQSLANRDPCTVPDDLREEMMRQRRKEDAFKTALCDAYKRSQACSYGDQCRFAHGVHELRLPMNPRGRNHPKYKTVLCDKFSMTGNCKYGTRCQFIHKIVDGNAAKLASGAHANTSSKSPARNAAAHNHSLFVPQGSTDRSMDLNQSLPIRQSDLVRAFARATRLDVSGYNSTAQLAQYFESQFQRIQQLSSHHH

[3] = biological target: T3, Zinc finger protein mex-5 (Caenorhabditis elegans, UniProt Q9XUB2); assay: MEX-5/TCR-2 RNA interaction inhibitors, dose response, biochemical, C. elegans, fluorescence polarization (AID 1960)
T3 sequence (Q9XUB2 whole entry): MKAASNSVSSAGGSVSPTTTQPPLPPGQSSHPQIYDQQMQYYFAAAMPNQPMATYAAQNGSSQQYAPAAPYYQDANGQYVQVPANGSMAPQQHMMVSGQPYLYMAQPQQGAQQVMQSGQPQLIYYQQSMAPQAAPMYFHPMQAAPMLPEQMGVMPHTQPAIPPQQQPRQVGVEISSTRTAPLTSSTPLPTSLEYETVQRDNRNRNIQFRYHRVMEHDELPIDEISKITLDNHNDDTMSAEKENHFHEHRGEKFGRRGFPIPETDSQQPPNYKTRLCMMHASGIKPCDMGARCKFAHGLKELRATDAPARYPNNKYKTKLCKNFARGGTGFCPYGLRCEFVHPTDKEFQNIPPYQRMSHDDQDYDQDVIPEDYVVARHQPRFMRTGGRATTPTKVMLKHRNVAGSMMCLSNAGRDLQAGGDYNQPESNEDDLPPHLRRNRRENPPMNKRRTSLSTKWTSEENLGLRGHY

Cytochrome P450 2C19 = Cytochrome P450 2C19 (Homo sapiens, UniProt P33261); assay: Cytochrome panel assay with activity outcomes. Panel member name: p450-cyp2c19 Compounds with AC50 equal or less than 10 uM are considered active; format: functional; details: read-out: AC50
Cytochrome P450 3A4 = Cytochrome P450 3A4 (Homo sapiens, UniProt P08684);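 further: CYP3A4 tested as one member of a cytochrome P450 panel screen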
Cytochrome P450 2C9 = Cytochrome P450 2C9 (Homo sapiens, UniProt P11712)
Cytochrome P450 1A2 = biological target: T4, Cytochrome P450 1A2 (Homo sapiens, UniProt P05177);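 further: PubChem cytochrome P450 panel assay, CYP1A2 panel member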
T4 sequence (P05177 whole entry): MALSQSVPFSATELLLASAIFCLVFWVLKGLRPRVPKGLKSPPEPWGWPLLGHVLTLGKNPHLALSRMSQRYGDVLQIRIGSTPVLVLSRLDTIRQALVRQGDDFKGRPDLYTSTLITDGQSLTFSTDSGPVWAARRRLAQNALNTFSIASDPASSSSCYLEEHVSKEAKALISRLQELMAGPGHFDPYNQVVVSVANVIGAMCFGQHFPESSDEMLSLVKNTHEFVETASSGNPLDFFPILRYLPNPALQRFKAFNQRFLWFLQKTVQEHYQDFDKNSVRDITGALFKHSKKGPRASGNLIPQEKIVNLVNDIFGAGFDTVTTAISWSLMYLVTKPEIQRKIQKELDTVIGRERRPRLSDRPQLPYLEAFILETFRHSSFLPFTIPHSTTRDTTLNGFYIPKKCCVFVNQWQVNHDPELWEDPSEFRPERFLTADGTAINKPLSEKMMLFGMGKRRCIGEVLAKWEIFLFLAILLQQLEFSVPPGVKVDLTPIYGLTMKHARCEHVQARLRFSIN

[4] = Luminescence Cell-Based Dose Retest to Confirm Inhibitors of Cancer Stem Cells. [Related pubchem assays (depositor defined):AID2717, AID2721]; format: functional; details: Homo sapiens
Cytochrome P450 2D6 = Cytochrome P450 2D6 (Homo sapiens, UniProt P10635);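 further: CYP2D6 member of a cytochrome P450 panel assay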
Cytochrome P450 2D6, sequence (P10635 whole entry): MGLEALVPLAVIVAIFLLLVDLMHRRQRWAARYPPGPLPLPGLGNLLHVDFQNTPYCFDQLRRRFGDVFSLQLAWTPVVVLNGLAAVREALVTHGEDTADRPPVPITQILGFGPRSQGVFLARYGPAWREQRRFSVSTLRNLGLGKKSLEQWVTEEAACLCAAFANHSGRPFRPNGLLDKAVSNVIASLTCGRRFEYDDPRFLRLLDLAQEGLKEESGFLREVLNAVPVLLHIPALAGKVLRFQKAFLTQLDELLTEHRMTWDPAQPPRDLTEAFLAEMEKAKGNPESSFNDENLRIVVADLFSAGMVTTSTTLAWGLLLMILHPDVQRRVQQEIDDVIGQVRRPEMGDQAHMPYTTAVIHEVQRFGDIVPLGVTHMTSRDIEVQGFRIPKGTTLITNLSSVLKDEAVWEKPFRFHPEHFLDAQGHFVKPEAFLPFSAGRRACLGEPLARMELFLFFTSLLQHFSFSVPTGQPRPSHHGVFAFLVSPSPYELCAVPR

Cytochrome P450 2C9, sequence (P11712 whole entry): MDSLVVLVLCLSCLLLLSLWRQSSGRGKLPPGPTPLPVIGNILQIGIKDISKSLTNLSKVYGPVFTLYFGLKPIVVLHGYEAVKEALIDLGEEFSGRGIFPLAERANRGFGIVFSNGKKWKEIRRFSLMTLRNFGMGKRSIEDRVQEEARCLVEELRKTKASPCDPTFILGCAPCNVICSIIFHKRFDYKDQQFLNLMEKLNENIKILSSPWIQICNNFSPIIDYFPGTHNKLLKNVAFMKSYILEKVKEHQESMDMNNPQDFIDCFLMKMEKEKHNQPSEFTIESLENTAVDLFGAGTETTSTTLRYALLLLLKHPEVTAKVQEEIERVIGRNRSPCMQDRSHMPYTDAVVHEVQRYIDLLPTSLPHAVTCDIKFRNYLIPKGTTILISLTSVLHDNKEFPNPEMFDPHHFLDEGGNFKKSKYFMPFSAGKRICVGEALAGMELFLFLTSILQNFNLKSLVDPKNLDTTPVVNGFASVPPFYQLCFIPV
Cytochrome P450 3A4, sequence (P08684 whole entry): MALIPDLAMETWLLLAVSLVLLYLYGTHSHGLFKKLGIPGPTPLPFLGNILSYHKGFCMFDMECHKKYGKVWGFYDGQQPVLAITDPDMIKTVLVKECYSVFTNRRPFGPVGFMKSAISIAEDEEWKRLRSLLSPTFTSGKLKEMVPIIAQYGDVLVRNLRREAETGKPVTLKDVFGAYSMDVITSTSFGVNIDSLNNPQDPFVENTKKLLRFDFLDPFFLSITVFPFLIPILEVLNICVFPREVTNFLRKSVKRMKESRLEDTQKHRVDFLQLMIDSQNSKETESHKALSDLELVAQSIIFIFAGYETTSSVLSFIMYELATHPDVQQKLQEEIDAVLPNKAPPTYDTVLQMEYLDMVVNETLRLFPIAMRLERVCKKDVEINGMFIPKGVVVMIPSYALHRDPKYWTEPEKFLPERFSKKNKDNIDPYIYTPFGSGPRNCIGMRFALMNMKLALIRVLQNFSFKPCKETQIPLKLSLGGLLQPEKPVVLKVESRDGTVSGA
Cytochrome P450 2C19, sequence (P33261 whole entry): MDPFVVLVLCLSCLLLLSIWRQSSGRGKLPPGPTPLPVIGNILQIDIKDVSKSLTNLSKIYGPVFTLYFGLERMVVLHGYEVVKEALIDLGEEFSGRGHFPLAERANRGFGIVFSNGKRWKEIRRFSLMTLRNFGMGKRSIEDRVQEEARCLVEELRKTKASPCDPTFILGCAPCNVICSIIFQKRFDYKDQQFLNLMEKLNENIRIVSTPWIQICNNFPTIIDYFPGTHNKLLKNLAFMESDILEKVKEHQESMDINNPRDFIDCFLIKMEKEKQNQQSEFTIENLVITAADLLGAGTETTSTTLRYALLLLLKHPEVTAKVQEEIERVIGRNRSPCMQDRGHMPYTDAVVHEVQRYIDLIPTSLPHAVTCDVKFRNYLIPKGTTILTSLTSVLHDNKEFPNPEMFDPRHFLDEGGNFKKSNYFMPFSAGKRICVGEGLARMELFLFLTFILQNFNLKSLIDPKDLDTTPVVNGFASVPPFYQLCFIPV

**Q.** For CCOC(=O)COc1cc(O)c2c(=O)cc(-c3ccccc3)oc2c1, which IC50 (cells) is on record?
**A.** 0.86 µM (active)

**Q.** For O=C(NC(CO)(CO)CO)c1coc(=O)c(Br)c1, which EC50 [1] is on record?
**A.** > 260 µM (inactive)

**Q.** For COc1ccc(C2C(C#N)=C(N)OC3=C2C(=O)CC(C)(C)C3)cc1Cn1cc([N+](=O)[O-])cn1 (stereo not given), which EC50 [2] is on record?
**A.** > 300 µM (not active)

**Q.** And the EC50 [3]?
**A.** > 300 µM (not active)

**Q.** For O=C(Nc1cccc([N+](=O)[O-])c1)c1ccc(CSc2ccccc2)cc1, which AC50 (Cytochrome P450 2C19) is on record?
**A.** 14.1 µM (inconclusive)

**Q.** And the AC50 (Cytochrome P450 3A4)?
**A.** 20 µM (inconclusive)

**Q.** What about the AC50 (Cytochrome P450 2C9) of the same molecule?
**A.** 0.562 µM (inconclusive)

**Q.** With CC#C[C@]1(O)CC[C@H]2[C@@H]3CCC4=CC(=O)CCC4=C3[C@H](c3ccc(N(C)C)cc3)C[C@@]21C as the molecule, how does the AC50 (Cytochrome P450 1A2) read?
**A.** 25.1 µM (inconclusive)

**Q.** With CCCCCCSc1cccc(-c2nc3ccc(Cl)cn3c2NCc2ccccc2)c1 as the molecule, how does the AC50 [4] read?
**A.** 1.55 µM (active)

**Q.** With Cc1c(NC(=O)/C=C/c2cn(-c3ccccc3)nc2-c2ccc(F)cc2)c(=O)n(-c2ccccc2)n1C as the molecule, how does the AC50 (Cytochrome P450 1A2) read?
**A.** 28.2 µM (inconclusive)

**Q.** What about the AC50 (Cytochrome P450 3A4) of the same molecule?
**A.** 25.1 µM (inconclusive)

**Q.** And the AC50 (Cytochrome P450 2C9)?
**A.** 20 µM (inconclusive)

**Q.** With CC1CCCN(c2ccc(C(=O)N3CCC4(CC3)OCCO4)cc2[N+](=O)[O-])C1 (stereo not given) as the molecule, how does the AC50 [4] read?
**A.** 4.55 µM (active)

**Q.** With CCN1CCN(c2cc(C(C)(C)C)nc3c(-c4ccccc4)c(C)nn23)CC1 as the molecule, how does the AC50 [4] read?
**A.** 5.68 µM (active)

**Q.** Which IC50 (cells) does the source give for Cc1ccnc(NC(=O)COc2ccc3c(c2)CCC3)c1 here?
**A.** 24.5 µM (active)

**Q.** Which EC50 [2] does the source give for O=C(NCc1ccccn1)C1Nc2ccc(C(F)(F)F)cc2C2C=CCC12 (stereo not given) here?
**A.** > 300 µM (not active)

**Q.** And the EC50 [3]?
**A.** > 300 µM (not active)

**Q.** Which AC50 (Cytochrome P450 2C19) does the source give for CS(=O)(=O)N1CCC[C@@]2(CCN(Cc3nccs3)C2)C1 here?
**A.** 39.8 µM (inconclusive)

**Q.** And the AC50 (Cytochrome P450 2D6)?
**A.** 39.8 µM (inconclusive)

**Q.** What about the AC50 (Cytochrome P450 3A4) of the same molecule?
**A.** 12.6 µM (inconclusive)

**Q.** With COc1ccc(C2C(C#N)=C(N)OC3=C2C(=O)CC(C)(C)C3)cc1Cn1nc(C)c([N+](=O)[O-])c1C (stereo not given) as the molecule, how does the EC50 [2] read?
**A.** > 300 µM (not active)

**Q.** What about the EC50 [3] of the same molecule?
**A.** > 300 µM (not active)

**Q.** With CC(C)c1cccc(C(C)C)c1OC(=O)[C@H]1OC(c2ccc(Br)cc2)=C[C@@H]1c1ccc(Br)cc1 as the molecule, how does the AC50 [4] read?
**A.** 3.58 µM (active)

**Q.** For COc1ccc(CCNc2cc(C)nc3c(-c4ccc(Cl)cc4)c(C)nn23)cc1OC, which AC50 [4] is on record?
**A.** 2.88 µM (active)

**Q.** With O=C(CCCC1=NS(=O)(=O)c2ccccc2N1)N1CCC2(CC1)OCCO2 as the molecule, how does the AC50 (Cytochrome P450 2C19) read?
**A.** 17.8 µM (inconclusive)

**Q.** What about the AC50 (Cytochrome P450 3A4) of the same molecule?
**A.** 35.5 µM (inconclusive)

**Q.** What about the AC50 (Cytochrome P450 2C9) of the same molecule?
**A.** 25.1 µM (inconclusive)

**Q.** Which AC50 (Cytochrome P450 2D6) does the source give for CCc1cc2c(nc1CC)CCN(CC/C(C)=N/OC[C@@H](O)COCc1ccco1)C2 here?
**A.** 3.98 µM (inconclusive)

**Q.** And the AC50 (Cytochrome P450 3A4)?
**A.** 3.16 µM (inconclusive)

**Q.** Which AC50 (Cytochrome P450 2D6) does the source give for CCOC(=O)n1c(=O)n(Cc2ccccc2Cl)c2ccccc21 here?
**A.** 28.2 µM (inconclusive)

**Q.** And the AC50 (Cytochrome P450 3A4)?
**A.** 15.8 µM (inconclusive)

**Q.** What does the source list for CCOC(=O)CC1C(=O)NCCN1S(=O)(=O)c1ccccc1Cl (stereo not given)?
**A.** AC50 (Cytochrome P450 2C19): 11.2 µM (inconclusive); AC50 (Cytochrome P450 2D6): 0.891 µM (inconclusive); AC50 (Cytochrome P450 3A4): 14.1 µM (inconclusive); AC50 (Cytochrome P450 2C9): 0.00562 µM (inconclusive)

**Q.** For COc1ccc(-c2sc3ccccc3c2/C=C/c2ccc(N)cc2)cc1, which AC50 [4] is on record?
**A.** 3.98 µM (active)

**Q.** Which results are given for CCS(=O)(=O)c1ccc(O)c(NC(=O)Nc2ccccc2)c1?
**A.** AC50 (Cytochrome P450 2C19): 39.8 µM (inconclusive); AC50 (Cytochrome P450 1A2): 20 µM (inconclusive); AC50 (Cytochrome P450 2C9): 7.08 µM (inconclusive)

**Q.** With CCO/C(O)=C/C(C)=N/c1cc(C)nn1-c1ccccc1 as the molecule, how does the EC50 [1] read?
**A.** > 260 µM (inactive)

**Q.** With CN1CCN(c2ccc([N+](=O)[O-])c(NCc3ccco3)c2)CC1 as the molecule, how does the AC50 [4] read?
**A.** 0.512 µM (active)

**Q.** With O=c1[nH][nH]c2cc(=O)n(-c3ccc(Cl)cc3)nc12 as the molecule, how does the EC50 [2] read?
**A.** 15.4 µM (active)

**Q.** And the EC50 [3]?
**A.** 4.09 µM (active)

**Q.** With CCCCC/N=c1\ccn(Cc2ccccc2)c2ccccc12 [CP-339818] as the molecule, how does the AC50 (Cytochrome P450 1A2) read?
**A.** 25.1 µM (inconclusive)

**Q.** And the AC50 (Cytochrome P450 3A4)?
**A.** 15.8 µM (inconclusive)
